# Source: PubChem BioAssay AID2060618 (Molecular Pharmacology Branch, DTP, NCI, 2025)
# System: 454973-116-R2-J3-PDC spheroids, percent test/control viability
# Assay: Anticancer human tumor 454973-116-R2-J3-PDC patient-derived pancreatic carcinoma cell line growth inhibition [CLK]
# Conditions: spheroids with HUVEC and MSC; for IC50: curve of first compound; for viability, T/C: stronger effect = lower value
# Method in brief: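 Patient-derived tumor cells grown as complex spheroids with HUVEC endothelial cells and mesenchymal stem cells, treated with drug combinations. Concentrations descend in half-log steps from near clinical Cmax, or from 10 microM if Cmax unknown.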
# [1] = second compound 0.0316 µM, first compound 0.0316 µM
# [2] = second compound 0.0316 µM, first compound 0.1 µM
# [3] = second compound 0.0316 µM, first compound 0.316 µM
# [4] = second compound 0.0316 µM, first compound 1 µM
# [5] = second compound 0.0316 µM, first compound 3.16 µM
# [6] = second compound 0.0316 µM, first compound 10 µM
# [7] = second compound 0.1 µM, first compound 0.0316 µM
# [8] = second compound 0.1 µM, first compound 0.1 µM
# [9] = second compound 0.1 µM, first compound 0.316 µM
# [10] = second compound 0.1 µM, first compound 1 µM
# [11] = second compound 0.1 µM, first compound 3.16 µM
# [12] = second compound 0.1 µM, first compound 10 µM
# [13] = second compound 0.316 µM, first compound 0.0316 µM
# [14] = second compound 0.316 µM, first compound 0.1 µM
# [15] = second compound 0.316 µM, first compound 0.316 µM
# [16] = second compound 0.316 µM, first compound 1 µM
# [17] = second compound 0.316 µM, first compound 3.16 µM
# [18] = second compound 0.316 µM, first compound 10 µM
# [19] = second compound 1 µM, first compound 0.0316 µM
# [20] = second compound 1 µM, first compound 0.1 µM
# [21] = second compound 1 µM, first compound 0.316 µM
# [22] = second compound 1 µM, first compound 1 µM
# [23] = second compound 1 µM, first compound 3.16 µM
# [24] = second compound 1 µM, first compound 10 µM
# [25] = second compound 3.16 µM, first compound 0.0316 µM
# [26] = second compound 3.16 µM, first compound 0.1 µM
# [27] = second compound 3.16 µM, first compound 0.316 µM
# [28] = second compound 3.16 µM, first compound 1 µM
# [29] = second compound 3.16 µM, first compound 3.16 µM
# [30] = second compound 3.16 µM, first compound 10 µM
# [31] = second compound 10 µM, first compound 0.0316 µM
# [32] = second compound 10 µM, first compound 0.1 µM
# [33] = second compound 10 µM, first compound 0.316 µM
# [34] = second compound 10 µM, first compound 1 µM
# [35] = second compound 10 µM, first compound 3.16 µM
# [36] = second compound 10 µM, first compound 10 µM
# 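Note: spheroids exposed to compounds for 7 days before readout.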
smiles,measurement,setting,value
CC(=O)O[C@H]1C(=O)[C@@]2(C)[C@H]([C@H](OC(=O)c3ccccc3)[C@]3(O)C[C@H](OC(=O)[C@H](O)[C@@H](NC(=O)c4ccccc4)c4ccccc4)C(C)=C1C3(C)C)[C@]1(OC(C)=O)CO[C@@H]1C[C@@H]2O + CN1CCN(c2cc(C(=O)Nc3cc4cc(-c5cnn(C)c5)ccc4cn3)ccn2)CC1,IC50,second compound 0.0316 µM,< 31.6 nM
same,IC50,second compound 0.1 µM,< 31.6 nM
same,IC50,second compound 0.316 µM,< 31.6 nM
same,IC50,second compound 1 µM,< 31.6 nM
same,IC50,second compound 3.16 µM,< 31.6 nM
same,IC50,second compound 10 µM,< 31.6 nM
same,"viability, T/C",[1],7.05%
same,"viability, T/C",[2],6.65%
same,"viability, T/C",[3],6.57%
same,"viability, T/C",[4],6.34%
same,"viability, T/C",[5],6.67%
same,"viability, T/C",[6],12.9%
same,"viability, T/C",[7],5.8%
same,"viability, T/C",[8],5.47%
same,"viability, T/C",[9],3.95%
same,"viability, T/C",[10],5.69%
same,"viability, T/C",[11],4.88%
same,"viability, T/C",[12],6.14%
same,"viability, T/C",[13],1.6%
same,"viability, T/C",[14],1.85%
same,"viability, T/C",[15],2.44%
same,"viability, T/C",[16],1.75%
same,"viability, T/C",[17],1.77%
same,"viability, T/C",[18],1.9%
same,"viability, T/C",[19],0.11%
same,"viability, T/C",[20],0.1%
same,"viability, T/C",[21],0.92%
same,"viability, T/C",[22],0.07%
same,"viability, T/C",[23],0.08%
same,"viability, T/C",[24],0.09%
same,"viability, T/C",[25],0.14%
same,"viability, T/C",[26],0.12%
same,"viability, T/C",[27],0.21%
same,"viability, T/C",[28],0.12%
same,"viability, T/C",[29],0.15%
same,"viability, T/C",[30],0.13%
same,"viability, T/C",[31],0.14%
same,"viability, T/C",[32],0.17%
same,"viability, T/C",[33],0.19%
same,"viability, T/C",[34],1.2%
same,"viability, T/C",[35],0.16%
same,"viability, T/C",[36],2.06%
O=C(c1cc(Cc2n[nH]c(=O)c3ccccc23)ccc1F)N1CCN(C(=O)C2CC2)CC1 + CN1CCN(c2cc(C(=O)Nc3cc4cc(-c5cnn(C)c5)ccc4cn3)ccn2)CC1,IC50,second compound 0.0316 µM,> 10000 nM
same,IC50,second compound 0.1 µM,5860 nM
same,IC50,second compound 0.316 µM,< 31.6 nM
same,IC50,second compound 1 µM,< 31.6 nM
same,IC50,second compound 3.16 µM,< 31.6 nM
same,IC50,second compound 10 µM,< 31.6 nM
same,"viability, T/C",[1],99%
same,"viability, T/C",[2],99.5%
same,"viability, T/C",[3],101%
same,"viability, T/C",[4],115%
same,"viability, T/C",[5],94.7%
same,"viability, T/C",[6],71.8%
same,"viability, T/C",[7],75.8%
same,"viability, T/C",[8],77%
same,"viability, T/C",[9],73.5%
same,"viability, T/C",[10],75.7%
same,"viability, T/C",[11],62.5%
same,"viability, T/C",[12],38%
same,"viability, T/C",[13],1.44%
same,"viability, T/C",[14],2.27%
same,"viability, T/C",[15],1.78%
same,"viability, T/C",[16],1.98%
same,"viability, T/C",[17],2.16%
same,"viability, T/C",[18],2.03%
same,"viability, T/C",[19],0.12%
same,"viability, T/C",[20],0.14%
same,"viability, T/C",[21],1.94%
same,"viability, T/C",[22],0.08%
same,"viability, T/C",[23],0.83%
same,"viability, T/C",[24],0.08%
same,"viability, T/C",[25],0.13%
same,"viability, T/C",[26],0.21%
same,"viability, T/C",[27],0.33%
same,"viability, T/C",[28],0.13%
same,"viability, T/C",[29],0.29%
same,"viability, T/C",[30],0.27%
same,"viability, T/C",[31],1.42%
same,"viability, T/C",[32],0.14%
same,"viability, T/C",[33],0.17%
same,"viability, T/C",[34],0.13%
same,"viability, T/C",[35],0.39%
same,"viability, T/C",[36],0.22%
